# Results as given in patent publication EP4700040A1, “PEPTIDE AND LUMINESCENT COMPLEX CONTAINING SAME” (Shenzhen Loggene Life Science & Technology Co., Ltd., priority 2023, dated 2024).
# Tests used:
# [1] = test system: PCT; assay: Second library screening for PCT detection, clone supernatants, retest with CTZ-h (Example 4); type: biochemical, human; details: for Signal-to-noise ratio: PCT+/PCT-, MBP-PCT 3.3 ng/ml, CTZ-h; for PCT+: luminescence signal value with MBP-PCT 3.3 ng/ml; for PCT+ / PCT-: large subunit-rSCFV5 12.5 nM, CTZ-h 25 µM, 60 s; for PCT-: luminescence signal value, PBSAD control without PCT
# Description: In order to further improve the signal-to-noise ratio and complementary activity of the luciferase dual-antibody complementary activation assay, novel complementary luciferase small subunits were prepared in this example. Large subunit-rSCFV5 fusion protein (SEQ ID NO: 87) was kept unchanged, and the small subunit sequence of the rSCFV18-RB073 fusion protein (SEQ ID NO: 89) were modified by semi-randomization. The theoretical diversity was 6912, the library capacity was 10^6, and 3,000 single clones were picked. The method of protein induction and expression was the same as that in Example 2.
# Detection Methods: • (1) The concentration of large subunit-rSCFV5 fusion protein was diluted to 12.5 nM, and 15 µl was added per well; • (2) MBP-PCT fusion protein was diluted to 3.3 ng/ml with PBSAD, and 10 µl was added per well; • (3) HB2151 strain containing plasmids with different small subunit sequences were induced by IPTG at 30°C overnight, then treated with polymyxin B for 1.5h, and centrifuged to collect the supernatant, and 2.5µl supernatant was added per well; • (4) The above three components were slightly mixed, incubated at 37°C for 7 min, and Obuffer 6.37-3 containing Furimazine at a concentration of 25 µM was added, and after 3 min, the luminescence signal value was detected using a bioluminescence detector; and • (5) Clones with RLU higher than 10,000 were picked. The substrate was replaced with CTZ-h substrate for retesting (Obuffer 6.37-3 containing CTZ-h at a concentration of 25 µM was added, and after 60 s, the luminescence signal value was detected using a bioluminescence detector), and a PBSAD control was added to test the signal-to-noise ratio.
# [2] = test system: PCT; assay: Sensitivity and linear range for PCT detection of preferred small subunits (Example 5); type: biochemical, human; details: for luminescence value: normalized; for Signal-to-noise ratio at 1000 pg/ml: large subunit 8.3~25 nM, small subunit fusion 30~180 nM, CTZ-h 15 µM
# Description: Detection Methods: • (1) The concentration of large subunit-rSCFV5 fusion protein was diluted with PBSA to 8.3~25nM, and 15µl was added per well; • (2) MBP-PCT fusion proteins were diluted with PBSAD in a downward gradient starting from 2.5 µg/ml, and 10 µl was added per well; • (3) The rSCFV18-small subunit mutant-containing fusion protein was diluted with PBSA to 30~180 nM, and 15 µl was added per well; • (4) The above three components were slightly mixed, incubated at 37°C for 15 min, and Obuffer 6.37-3 containing CTZ-h at a concentration of 15 µM was added, and the luminescence signal value was immediately detected using a bioluminescence detector (the luminescence value was normalized);
sequence,measurement,setting,value
VSGYRLFDRKS [RC-018],Signal-to-noise ratio,[1],6.6
same,PCT+,[1],13188
same,PCT-,[1],1998
VEGWRLFDRKS [RC-232],Signal-to-noise ratio,[1],5.8
same,PCT+,[1],18313
same,PCT-,[1],3183
VDGWRLFDKKS [RC-103],Signal-to-noise ratio,[1],6.5
same,PCT+,[1],8672
same,PCT-,[1],1337
VSGYRIFEKKW [RC-113],Signal-to-noise ratio,[1],5.3
same,PCT+,[1],6207
same,PCT-,[1],1176
VSGYRLFDKKS [RC-187],Signal-to-noise ratio,[1],7.9
same,PCT+,[1],11049
same,PCT-,[1],1405
same,luminescence value,"[2]; PCT 0.0, background",5000
same,luminescence value,[2]; PCT 1 (pg/ml),4944
same,luminescence value,[2]; PCT 3 (pg/ml),4968
same,luminescence value,[2]; PCT 10 (pg/ml),5099
same,luminescence value,[2]; PCT 30 (pg/ml),5570
same,luminescence value,[2]; PCT 100 (pg/ml),7032
same,luminescence value,[2]; PCT 1000 (pg/ml),27642
same,luminescence value,[2]; PCT 10000 (pg/ml),214329
same,luminescence value,[2]; PCT 100000 (pg/ml),910908
same,luminescence value,[2]; PCT 250000 (pg/ml),1012760
same,Signal-to-noise ratio at 1000 pg/ml,[2],5.5
VSGYRIFEKKS [RC-129],Signal-to-noise ratio,[1],5.8
same,PCT+,[1],12040
same,PCT-,[1],2068
VSGYRLFDRKW [RC-033],Signal-to-noise ratio,[1],10.4
same,PCT+,[1],8509
same,PCT-,[1],820
VSGYRLFDKVS [RC-178],Signal-to-noise ratio,[1],9.6
same,PCT+,[1],5708
same,PCT-,[1],593
same,luminescence value,"[2]; PCT 0.0, background",5000
same,luminescence value,[2]; PCT 1 (pg/ml),4911
same,luminescence value,[2]; PCT 3 (pg/ml),5152
same,luminescence value,[2]; PCT 10 (pg/ml),5180
same,luminescence value,[2]; PCT 30 (pg/ml),6047
same,luminescence value,[2]; PCT 100 (pg/ml),8378
same,luminescence value,[2]; PCT 1000 (pg/ml),41922
same,luminescence value,[2]; PCT 10000 (pg/ml),350855
same,luminescence value,[2]; PCT 100000 (pg/ml),1664322
same,luminescence value,[2]; PCT 250000 (pg/ml),1858964
same,Signal-to-noise ratio at 1000 pg/ml,[2],8.4
VEGYRIFEKKW [RC-286],Signal-to-noise ratio,[1],11.4
same,PCT+,[1],5003
same,PCT-,[1],438
same,luminescence value,"[2]; PCT 0.0, background",5000
same,luminescence value,[2]; PCT 1 (pg/ml),4670
same,luminescence value,[2]; PCT 3 (pg/ml),4645
same,luminescence value,[2]; PCT 10 (pg/ml),4833
same,luminescence value,[2]; PCT 30 (pg/ml),5406
same,luminescence value,[2]; PCT 100 (pg/ml),6696
same,luminescence value,[2]; PCT 1000 (pg/ml),27596
same,luminescence value,[2]; PCT 10000 (pg/ml),236023
same,luminescence value,[2]; PCT 100000 (pg/ml),1443932
same,luminescence value,[2]; PCT 250000 (pg/ml),2007480
same,Signal-to-noise ratio at 1000 pg/ml,[2],5.5
VEGYRLFDRKS [RC-218],Signal-to-noise ratio,[1],7.9
same,PCT+,[1],7242
same,PCT-,[1],921
same,luminescence value,"[2]; PCT 0.0, background",5000
same,luminescence value,[2]; PCT 1 (pg/ml),4937
same,luminescence value,[2]; PCT 3 (pg/ml),4976
same,luminescence value,[2]; PCT 10 (pg/ml),5164
same,luminescence value,[2]; PCT 30 (pg/ml),5701
same,luminescence value,[2]; PCT 100 (pg/ml),7494
same,luminescence value,[2]; PCT 1000 (pg/ml),31585
same,luminescence value,[2]; PCT 10000 (pg/ml),266213
same,luminescence value,[2]; PCT 100000 (pg/ml),1757745
same,luminescence value,[2]; PCT 250000 (pg/ml),2436323
same,Signal-to-noise ratio at 1000 pg/ml,[2],6.3
VSGYRIFERKW [RC-206],Signal-to-noise ratio,[1],5.9
same,PCT+,[1],7413
same,PCT-,[1],1260
VDGYRLFEKVS [RC-263],Signal-to-noise ratio,[1],7.0
same,PCT+,[1],4768
same,PCT-,[1],685
same,luminescence value,"[2]; PCT 0.0, background",5000
same,luminescence value,[2]; PCT 1 (pg/ml),5132
same,luminescence value,[2]; PCT 3 (pg/ml),5234
same,luminescence value,[2]; PCT 10 (pg/ml),5192
same,luminescence value,[2]; PCT 30 (pg/ml),5647
same,luminescence value,[2]; PCT 100 (pg/ml),7134
same,luminescence value,[2]; PCT 1000 (pg/ml),28776
same,luminescence value,[2]; PCT 10000 (pg/ml),240937
same,luminescence value,[2]; PCT 100000 (pg/ml),1556694
same,luminescence value,[2]; PCT 250000 (pg/ml),2230650
same,Signal-to-noise ratio at 1000 pg/ml,[2],5.8
VSGYRLFDRKS [RC-228],Signal-to-noise ratio,[1],5.4
same,PCT+,[1],16339
same,PCT-,[1],3000
VEGWRLFDRVS [RC-237],Signal-to-noise ratio,[1],5.0
same,PCT+,[1],10821
same,PCT-,[1],2186
VDGWRLFDKKS [RC-175],Signal-to-noise ratio,[1],11.8
same,PCT+,[1],6953
same,PCT-,[1],587
VSGYRLFDKKW [RC-099],Signal-to-noise ratio,[1],7.0
same,PCT+,[1],8149
same,PCT-,[1],1164
same,luminescence value,"[2]; PCT 0.0, background",5000
same,luminescence value,[2]; PCT 1 (pg/ml),5106
same,luminescence value,[2]; PCT 3 (pg/ml),5166
same,luminescence value,[2]; PCT 10 (pg/ml),5453
same,luminescence value,[2]; PCT 30 (pg/ml),5950
same,luminescence value,[2]; PCT 100 (pg/ml),7470
same,luminescence value,[2]; PCT 1000 (pg/ml),28688
same,luminescence value,[2]; PCT 10000 (pg/ml),243815
same,luminescence value,[2]; PCT 100000 (pg/ml),1744023
same,luminescence value,[2]; PCT 250000 (pg/ml),2942238
same,Signal-to-noise ratio at 1000 pg/ml,[2],5.7
VEGYRLFEKIS [RC-036],Signal-to-noise ratio,[1],5.5
same,PCT+,[1],8563
same,PCT-,[1],1565
VSGYRLFDKVS [RC-114],Signal-to-noise ratio,[1],6.5
same,PCT+,[1],6401
same,PCT-,[1],982
VSGYRIFEKKS [RC-152],Signal-to-noise ratio,[1],5.6
same,PCT+,[1],9688
same,PCT-,[1],1715
VEGYRLFDKVS [RC-215],Signal-to-noise ratio,[1],11.2
same,PCT+,[1],5972
same,PCT-,[1],531
same,luminescence value,"[2]; PCT 0.0, background",5000
same,luminescence value,[2]; PCT 1 (pg/ml),5095
same,luminescence value,[2]; PCT 3 (pg/ml),5206
same,luminescence value,[2]; PCT 10 (pg/ml),5458
same,luminescence value,[2]; PCT 30 (pg/ml),6156
same,luminescence value,[2]; PCT 100 (pg/ml),7892
same,luminescence value,[2]; PCT 1000 (pg/ml),35231
same,luminescence value,[2]; PCT 10000 (pg/ml),296125
same,luminescence value,[2]; PCT 100000 (pg/ml),1967363
same,luminescence value,[2]; PCT 250000 (pg/ml),2983773
same,Signal-to-noise ratio at 1000 pg/ml,[2],7.0
VSGWRIFDRKS [RC-041],Signal-to-noise ratio,[1],4.7
same,PCT+,[1],11789
same,PCT-,[1],2495
VEGYRLFERKS [RC-105],Signal-to-noise ratio,[1],5.0
same,PCT+,[1],14534
same,PCT-,[1],2934
VEGYRLFEKIS [RC-239],Signal-to-noise ratio,[1],6.0
same,PCT+,[1],10022
same,PCT-,[1],1676
VEGYRLFDKVS [RC-087],Signal-to-noise ratio,[1],8.0
same,PCT+,[1],6923
same,PCT-,[1],861
VEGYRLFDKVS [RC-247],Signal-to-noise ratio,[1],8.8
same,PCT+,[1],4398
same,PCT-,[1],497
VEGYRLFERKS [RC-145],Signal-to-noise ratio,[1],10.1
same,PCT+,[1],8198
same,PCT-,[1],808
VNGWRLFDKKS [RC-271],Signal-to-noise ratio,[1],5.0
same,PCT+,[1],7132
same,PCT-,[1],1428
VDGYRLFERKS [RC-203],Signal-to-noise ratio,[1],6.6
same,PCT+,[1],10062
same,PCT-,[1],1536
VEGYRLFEKIS [RC-082],Signal-to-noise ratio,[1],5.8
same,PCT+,[1],12852
same,PCT-,[1],2232
VSGYRLFDKKW [RC-261],Signal-to-noise ratio,[1],4.5
same,PCT+,[1],7217
same,PCT-,[1],1616
VSGYRLFDRVW [RC-220],Signal-to-noise ratio,[1],5.7
same,PCT+,[1],6738
same,PCT-,[1],1192
VSGYRIFDKKS [RC-044],Signal-to-noise ratio,[1],8.0
same,PCT+,[1],10392
same,PCT-,[1],1302
VDGWRLFERKS [RC-171],Signal-to-noise ratio,[1],7.6
same,PCT+,[1],10309
same,PCT-,[1],1363
VSGYRLFDRVS [RC-032],Signal-to-noise ratio,[1],4.8
same,PCT+,[1],9519
same,PCT-,[1],1998
VEGWRIFERKW [RC-070],Signal-to-noise ratio,[1],5.2
same,PCT+,[1],8980
same,PCT-,[1],1715
VSGYRLFDRKS [RC-098],Signal-to-noise ratio,[1],5.1
same,PCT+,[1],8666
same,PCT-,[1],1698
VSGWRIFDKKS [RC-124],Signal-to-noise ratio,[1],7.5
same,PCT+,[1],9280
same,PCT-,[1],1234
VEGYRLFEKVS [RC-042],Signal-to-noise ratio,[1],9.7
same,PCT+,[1],5769
same,PCT-,[1],593
VNGWRIFDKKS [RC-242],Signal-to-noise ratio,[1],5.9
same,PCT+,[1],9037
same,PCT-,[1],1524
VSGYRLFDKKS [RC-134],Signal-to-noise ratio,[1],7.7
same,PCT+,[1],9409
same,PCT-,[1],1223
VSGYRLFDKVS [RC-208],Signal-to-noise ratio,[1],6.0
same,PCT+,[1],12303
same,PCT-,[1],2056
